Data as given in patent US20180273970A1, “PLASMID, TRANSFORMED PLANT CELL AND TRANSGENIC PLANT COMPRISING THE SAME, AND METHODS FOR PREPARING A TRANSGENIC PLANT AND FOR INCREASING YIELD OF A PLANT UNDER ABIOTIC STRESSES” (Academia Sinica, priority 2014, published 2018).

What was measured:
Type in all cases: cell-based
αAmy3 SRC promoter [1] = test: Rice embryo transient expression assay, SRC-35Smp:Luc reporter (luciferase); details: rice embryos, 1 μM ABA or 50 mM sorbitol, 24 h
Method: FIG. 3. The highly conserved GKSKSF domain (KSD) is essential for SKINs to antagonize the function of SnRK1A. Rice embryos were transfected with plasmids, incubated in medium with 100 mM glucose (+S) or without glucose (−S) for 24 h, and assayed for luciferase activity. The luciferase activity in rice embryos bombarded with the SRC-35S mp-Luc construct only and in +S medium was set to 1×, and other values were calculated relative to this value. Error bars indicate the SE for three replicate experiments. (A) Plasmid constructs. (B) Rice embryos were co-transfected with effector Ubi:SnRK1A, Ubi:SKIN1 or Ubi:SKIN(Ri) alone and reporter SRC-35Smp:Luc, or co-transfected with effectors Ubi:SnRK1A and Ubi:SKIN or Ubi:SKIN(Ri) and reporter SRC-35Smp:Luc. (C) Total cellular proteins were extracted from rice embryos transfected with Ubi:SnRK1A, Ubi:SKIN or Ubi:SnRK1A and Ubi:SKIN by particle bombardment and subjected to Western blot analysis using antibodies against SnRK1A and the HA tag fused to at the N-terminus of SKINs. (D) Rice embryos were co-transfected with effectors Ubi:SnRK1A and Ubi:SKIN1 (wild-type or truncated) and reporter SRC-35Smp:Luc. (E) Rice embryos were co-transfected with effectors Ubi:SnRK1A and Ubi:SKIN (wild-type, KSD deleted, or KSD replaced with 6 Ala) and reporter SRC-35Smp:Luc.
(§1) FIG. 21. ABA and sorbitol suppress the function of SnRK1A in activation of αAmy3 SRC promoter. Rice embryos and barley aleurones were transfected with reporter SRC-35Smp:Luc with or without effectors, incubated with or without ABA for 24 h, and assayed for luciferase activity. The luciferase activity in embryos or aleurones bombarded with the SRC-35S mp-Luc construct only and in +S medium was set to 1×, and other values were calculated relative to this value. Error bars indicate the SE for three replicate experiments. (A) Plasmid constructs. (B) Barley aleurones were transfected with effector Ubi:SnRK1A, Ubi:SKIN1 or Ubi:SKIN(Ri) alone and reporter SRC-35Smp:Luc, or co-transfected with effectors Ubi:SnRK1A and Ubi:SKIN or Ubi:SKIN(Ri) and reporter SRC-35Smp:Luc. (C) Rice embryos (upper panel) were transfected with or without Ubi:SnRK1A and incubated with or without 1 μM ABA or 50 mM sorbitol, and barley aleurones (lower panel) were transfected with or without Ubi:SnRK1A and incubated with 5 μM ABA or 400 mM sorbitol.
Rice embryos were prepared for particle bombardment as described (Chen et al., 2006). The rice embryos were bombarded with reporter, effectors and internal control at a ratio of 4:2:1 for single effector or 4:2:2:1 for two effectors. The internal control (Ubi::GUS) was used to normalize the reporter enzyme activity because different transformation efficiency might occur in each independent experiment. Bombarded rice embryos were divided into two halves, with half being incubated in MS liquid medium containing 100 mM Glc, and the other half grown in MS liquid containing 100 mM mannitol, for 24 h. Total proteins were extracted for embryos with a cell lysis buffer [0.1 M K-phosphate, pH 7.8, 1 mM EDTA, 10% glycerol, 1% triton X-100, and 7 mM β-mercaptoethanol]. GUS assay buffer [0.1 M Na-phosphate, 20 mM EDTA, 0.2% sarcosine, 0.2% Triton X-100, and 20 mM β-mercaptoethanol] was used for GUS activity assay. The activity assay of GUS and luciferase were described elsewhere (Lu et al., 1998). All bombardments were repeated at least three times.

SnRK1A-GFP = test: Cellular localization of SnRK1A-GFP in transfected barley aleurones (confocal microscopy); details: 48 h; for % of total cells with SnRK1A-GFP in location [drawing 1] (nucleus) / % of total cells with SnRK1A-GFP in location [drawing 2] (cytoplasm) / Number of cells with SnRK1A-GFP in location [drawing 1] (nucleus) / Number of cells with SnRK1A-GFP in location [drawing 2] (cytoplasm): +ABA
Method: FIG. 10. ABA restricts SKINs, SnRK1A and MYBS1 in the cytoplasm under sugar starvation. Barley aleurones were co-transfected with indicated plasmid constructs and incubated in +S or −S medium with ABA (+ABA) or without ABA (−ABA) for 48 h. Thirty optical sections of 0.9-1.1 μm thickness were prepared for each cell and only five regularly spaced sections (sections 3, 9, 15, 21 and 27) are shown here. C and N indicate higher GFP signals, and c and n indicate lower GFP signals in the cytoplasm and nucleus, respectively. For more section images of each cell, see also FIG. 22 online. (A) Barley aleurones were transfected with Ubi:SKIN1-GFP, Ubi:SKIN2-GFP, Ubi:SnRK1A-GFP or Ubi:MYBS1-GFP alone. (B) Barley aleurones were transfected with Ubi.MYBS1-GFP alone (panel 1) or co-transfected with Ubi.MYBS1-GFP and Ubi:SnRK1A (panel 2), or with Ubi.MYBS1-GFP and Ubi:SnRK1A(Ri) (panel 3). (C) Barley aleurones were co-transfected with Ubi:SnRK1A-GFP and Ubi:SKIN(Ri). (D) Wild type rice (WT) or transgenic rice overexpression Ubi:SKIN(Ri) were transfected with Ubi:SnRK1A-GFP (panels 1-3) or Ubi.MYBS1-GFP (panels 4-6).
Detection of cellular localization of SKIN-GFP, SnRK1A-GFP and MYBS1-GFP fusion proteins were performed as described (Hong et al., 2012). Embryoless barley and rice seeds were sterilized with 1% NaOCl for 30 mins, and incubated in a buffer containing 20 mM CaCl2 and 20 mM sodium succinate, pH 5.0, for 4 days. Aleurone layers were isolated by scratching away starch in the endosperm with a razor blade. Four aleurone layers were arranged in a 10-cm dish for bombardment. Aleurone layers expressing GFP were examined with a Ziess confocal microscope (LSM510META) using a 488-nm laser line for excitation and a 515- to 560-nm long pass filter for emission.

αAmy3 SRC promoter [2] = test: Barley aleurone transient expression assay, SRC-35Smp:Luc reporter (luciferase); details: barley aleurones, 5 μM ABA or 400 mM sorbitol, 24 h
Method: as §1
The barley aleurone/endosperm transient expression assays were performed as described (Hong et al., 2012). Each independent experiment consisted of three replicates, with six endosperms for each treatment, and was repeated three times with similar results. Luciferase and GUS activity assays were performed as described (Hong et al., 2012). […]

Which “Effect on αAmy3 SRC promoter (luciferase activity), alone and SnRK1A-activated” value (αAmy3 SRC promoter [1]) does the source give for CC1=CC(=O)CC(C)(C)[C@@]1(O)/C=C/C(C)=C\C(=O)O [ABA, abscisic acid] here?
The value was “suppressed”.

What about the “% of total cells with SnRK1A-GFP in location [drawing 1] (nucleus)” value (SnRK1A-GFP; +S medium) of the same compound?
The value was 15.8%.

And the “% of total cells with SnRK1A-GFP in location [drawing 2] (cytoplasm)” value (SnRK1A-GFP; +S medium)?
The value was 84.2%.

What about the “Number of cells with SnRK1A-GFP in location [drawing 1] (nucleus)” value (SnRK1A-GFP; +S medium) of the same compound?
The value was 6.

What about the “Number of cells with SnRK1A-GFP in location [drawing 2] (cytoplasm)” value (SnRK1A-GFP; +S medium) of the same compound?
Its value is 32.

What about the “Localization of SnRK1A-GFP” value (SnRK1A-GFP; −S medium containing ABA) of the same compound?
Its value is “exclusively localized in the cytoplasm”.

What about the “% of total cells with SnRK1A-GFP in location [drawing 1] (nucleus)” value (SnRK1A-GFP; −S medium) of the same compound?
Its value is 8.0%.

And the “% of total cells with SnRK1A-GFP in location [drawing 2] (cytoplasm)” value (SnRK1A-GFP; −S medium)?
The value was 92.0%.

And the “Number of cells with SnRK1A-GFP in location [drawing 1] (nucleus)” value (SnRK1A-GFP; −S medium)?
Its value is 7.

And the “Number of cells with SnRK1A-GFP in location [drawing 2] (cytoplasm)” value (SnRK1A-GFP; −S medium)?
Its value is 81.

And the “Effect on αAmy3 SRC promoter (luciferase activity), alone and SnRK1A-activated” value (αAmy3 SRC promoter [2])?
Its value is “suppressed”.
